Data reported in ChEMBL document CHEMBL4673406, “Discovery and Preclinical Evaluation of BMS-986242, a Potent, Selective Inhibitor of Indoleamine-2,3-dioxygenase 1” (ACS Med Chem Lett, 2021).

Experiments:
[1] = biological target: T1, Indoleamine 2,3-dioxygenase 1 (Homo sapiens, UniProt P14902); assay: Inhibition of IDO1 in IFNgamma/LPS-stimulated human whole blood preincubated for 4 hrs followed by IFNgamma/LPS stimulation and incubated for 18 hrs by Rapid-fire mass spectrometry analysis; type: tissue-based
[2] = biological target: Indoleamine 2,3-dioxygenase 1 (Mus musculus, UniProt P28776); assay: Inhibition of IDO1 in IFNgamma-stimulated mouse M109 cells preincubated for 2 hrs followed by IFNgamma stimulation and measured after 18 hrs by; type: cell-based
[3] = biological target: T1, Indoleamine 2,3-dioxygenase 1; assay: Inhibition of IDO1 in IFNgamma-stimulated human HeLa cells preincubated for 2 hrs followed by IFNgamma stimulation and measured after 18 hrs by
in vitro [4] = conditions: mouse, liver microsomes
Description: Metabolic stability in mouse liver microsomes assessed as parent compound remaining at 0.5 uM measured after 10 mins

in vitro [5] = conditions: human, liver microsomes
Description: Metabolic stability in human liver microsomes assessed as parent compound remaining at 0.5 uM measured after 10 mins

[6] = Aqueous solubility of the compound at pH 6.5; type: physicochemical; conditions: buffer
[7] = AUC (0 to 24 hrs) in nu/nu mouse xenografted with human SK-OV-3 cells measured in tumor at 100 mg/kg, po bid by uHPLC-MS/MS analysis; type: ADME, organism-based; parameters: time < 24 hr, route oral, dose 100 mg/kg
[8] = Solubility of the compound at pH 6.5 to 7.4; type: physicochemical; conditions: buffer
[9] = biological target: Indoleamine 2,3-dioxygenase 1 (Mus musculus) (UniProt P28776); assay: In vivo inhibition of IDO1 in nu/nu mouse xenografted with human SK-OV-3 cells assessed as reduction in kynurenine level at 60 mg/kg, po qd by HPLC-MS/MS analysis relative to control; type: functional, organism-based
in vivo = conditions: nu/nu, mouse, tumor, po, 60 mg/kg
Description: AUC (0 to 24 hrs) in nu/nu mouse xenografted with human SK-OV-3 cells measured in tumor at 60 mg/kg, po qd by uHPLC-MS/MS analysis

Chain of Indoleamine 2,3-dioxygenase 1 (Mus musculus, UniProt P28776) (P28776 whole entry): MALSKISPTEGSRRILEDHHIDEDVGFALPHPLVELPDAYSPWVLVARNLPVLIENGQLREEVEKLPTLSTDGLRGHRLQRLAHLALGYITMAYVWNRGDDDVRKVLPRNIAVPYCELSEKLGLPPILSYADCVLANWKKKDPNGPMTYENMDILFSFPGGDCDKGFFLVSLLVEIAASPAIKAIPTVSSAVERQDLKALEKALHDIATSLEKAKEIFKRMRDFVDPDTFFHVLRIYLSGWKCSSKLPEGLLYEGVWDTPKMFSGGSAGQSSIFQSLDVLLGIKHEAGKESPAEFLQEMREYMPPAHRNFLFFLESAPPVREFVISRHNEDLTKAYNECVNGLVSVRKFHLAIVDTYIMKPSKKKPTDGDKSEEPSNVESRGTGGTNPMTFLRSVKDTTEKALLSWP
T1 sequence (P14902 whole entry): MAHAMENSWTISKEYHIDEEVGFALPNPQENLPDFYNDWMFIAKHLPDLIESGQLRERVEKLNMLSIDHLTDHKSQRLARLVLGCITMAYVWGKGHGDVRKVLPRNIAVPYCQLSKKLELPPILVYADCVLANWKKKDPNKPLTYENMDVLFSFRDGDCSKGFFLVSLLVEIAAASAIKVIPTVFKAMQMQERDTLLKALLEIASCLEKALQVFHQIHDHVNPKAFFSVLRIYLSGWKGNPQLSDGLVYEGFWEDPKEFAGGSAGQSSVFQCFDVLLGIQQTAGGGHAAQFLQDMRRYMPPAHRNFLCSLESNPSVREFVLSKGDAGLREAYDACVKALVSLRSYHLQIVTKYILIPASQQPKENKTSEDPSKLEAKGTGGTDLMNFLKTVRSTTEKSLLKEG
Chain of Indoleamine 2,3-dioxygenase 1 (Mus musculus) (P28776 whole entry, looked up): as the sequence (P28776 whole entry) above

With `C[C@@H](NC(=O)c1cccc(Cl)c1)[C@H]1CC[C@@H](c2ccnc3ccc(F)cc32)CC1` the IC50 [1] was 97 nM, the IC50 [2] was 48 nM and the IC50 [3] was 7 nM. For the same compound, the remaining at 10 min, 0.5 µM (in vitro [4]) was 9% and the remaining at 10 min, 0.5 µM (in vitro [5]) was 39%.

With `C[C@@H](C(=O)NC1CCCCC1)[C@H]1CC[C@@H](c2ccnc3ccc(F)cc32)CC1` the IC50 [1] was 470 nM, the IC50 [2] was 287 nM and the IC50 [3] was 18 nM. The remaining at 10 min, 0.5 µM (in vitro [4]) was < 1% and the remaining at 10 min, 0.5 µM (in vitro [5]) was < 1%.

`C[C@@H](NC(=O)Cc1ccc(Cl)cc1)[C@H]1CC[C@@H](c2ccnc3ccc(F)cc32)CC1` gave an IC50 [1] of 779 nM, an IC50 [2] of 651 nM and an IC50 [3] of 125 nM. It also gave a remaining at 10 min, 0.5 µM (in vitro [4]) of 2% and a remaining at 10 min, 0.5 µM (in vitro [5]) of 8%.

For `C[C@@H](NC(=O)c1ccccc1Cl)[C@H]1CC[C@@H](c2ccnc3ccc(F)cc32)CC1`, the IC50 [1] was 135 nM, the IC50 [2] was 215 nM and the IC50 [3] was 12 nM. The remaining at 10 min, 0.5 µM (in vitro [4]) was 7% and the remaining at 10 min, 0.5 µM (in vitro [5]) was 21%.

For `C[C@@H](NC(=O)C12CCC(Cl)(CC1)CC2)[C@H]1CC[C@@H](c2ccnc3ccc(F)cc32)CC1`, the IC50 [1] was 579 nM, the IC50 [2] was 56 nM and the remaining at 10 min, 0.5 µM (in vitro [4]) was 10%. For the same compound, the remaining at 10 min, 0.5 µM (in vitro [5]) was 9%.

In the case of `COc1ccc(C(=O)N[C@H](C)[C@H]2CC[C@@H](c3ccnc4ccc(F)cc43)CC2)cc1N1CCOCC1`, the solubility [6] is reported as < 1 µg/mL, the IC50 [1] is reported as 35 nM and the IC50 [2] is reported as 20 nM. It also gave an IC50 [3] of 7 nM, a remaining at 10 min, 0.5 µM (in vitro [4]) of 4% and a remaining at 10 min, 0.5 µM (in vitro [5]) of 2%.

For `C[C@@H](CNc1ccc(Cl)cc1)[C@H]1CC[C@@H](c2ccnc3ccc(F)cc32)CC1`, the IC50 [1] was 44 nM, the IC50 [2] was 62 nM and the IC50 [3] was 7 nM. For the same compound, the remaining at 10 min, 0.5 µM (in vitro [4]) was 80% and the remaining at 10 min, 0.5 µM (in vitro [5]) was 80%.

In the case of `C[C@H](NC(=O)[C@H](C)[C@H]1CC[C@@H](c2ccnc3ccc(F)cc32)CC1)c1ccc(Cl)cc1`, the IC50 [1] is reported as > 1000 nM, the IC50 [2] is reported as 870 nM and the IC50 [3] is reported as 67 nM. The remaining at 10 min, 0.5 µM (in vitro [4]) was 5% and the remaining at 10 min, 0.5 µM (in vitro [5]) was 19%.

`C[C@@H](CNC(=O)c1ccc(Cl)cc1)[C@H]1CC[C@@H](c2ccnc3ccc(F)cc32)CC1` gave an IC50 [1] of 158 nM, an IC50 [2] of 772 nM and an IC50 [3] of 261 nM. For the same compound, the remaining at 10 min, 0.5 µM (in vitro [4]) was 32% and the remaining at 10 min, 0.5 µM (in vitro [5]) was 56%.

Work on `C[C@@H](c1nc2ccc(Cl)cc2[nH]1)[C@H]1CC[C@@H](c2ccnc3ccc(F)cc32)CC1` yielded an IC50 [1] of 28 nM, an IC50 [2] of 12 nM and an IC50 [3] of 4 nM. The remaining at 10 min, 0.5 µM (in vitro [4]) was 12% and the remaining at 10 min, 0.5 µM (in vitro [5]) was 48%.

`NS(=O)(=O)NCCNc1nonc1C(=NO)Nc1ccc(F)c(Br)c1` [EPACADOSTAT] showed an AUC at 24 h [7] of 48 µM·h.

In the case of `C[C@@H](NC(=O)c1ccc(-c2ccccc2)cc1)[C@H]1CC[C@@H](c2ccnc3ccc(F)cc32)CC1`, the solubility [8] is reported as < 1 µg/mL, the IC50 [1] is reported as 22 nM and the IC50 [2] is reported as 3 nM. The IC50 [3] was 2 nM, the remaining at 10 min, 0.5 µM (in vitro [4]) was 70% and the remaining at 10 min, 0.5 µM (in vitro [5]) was 59%.

With `C[C@@H](NCc1ccc(Cl)cc1)[C@H]1CC[C@@H](c2ccnc3ccc(F)cc32)CC1` the IC50 [1] was > 1000 nM, the IC50 [2] was > 1000 nM and the IC50 [3] was 745 nM. For the same compound, the remaining at 10 min, 0.5 µM (in vitro [4]) was 2% and the remaining at 10 min, 0.5 µM (in vitro [5]) was 34%.

Work on `COc1ncc(NC(=O)[C@H](C)[C@H]2CC[C@@H](c3ccnc4ccc(F)cc43)CC2)cn1` yielded an IC50 [1] of 80 nM, an IC50 [2] of 92 nM and an IC50 [3] of 10 nM. It also gave a remaining at 10 min, 0.5 µM (in vitro [4]) of 51% and a remaining at 10 min, 0.5 µM (in vitro [5]) of 73%.

Work on `C[C@@H](C(=O)Nc1ccc(Cl)cc1)[C@H]1CC[C@@H](c2ccnc3ccc(F)cc32)CC1` yielded an inhibition [9] of 61%, an AUC at 24 h (in vivo) of 34.9 µM·h and a remaining at 10 min, 0.5 µM (in vitro [4]) of 31%. The remaining at 10 min, 0.5 µM (in vitro [5]) was 84%.

With `C[C@@H](NS(=O)(=O)c1ccc(Cl)cc1)[C@H]1CC[C@@H](c2ccnc3ccc(F)cc32)CC1` the IC50 [1] was 484 nM, the IC50 [2] was > 1000 nM and the IC50 [3] was > 1000 nM. The remaining at 10 min, 0.5 µM (in vitro [4]) was < 1% and the remaining at 10 min, 0.5 µM (in vitro [5]) was 29%.

In the case of `C[C@@H](NC(=O)C1CCCCC1)[C@H]1CC[C@@H](c2ccnc3ccc(F)cc32)CC1`, the IC50 [1] is reported as 294 nM, the IC50 [2] is reported as 86 nM and the IC50 [3] is reported as 12 nM. It also gave a remaining at 10 min, 0.5 µM (in vitro [4]) of 5% and a remaining at 10 min, 0.5 µM (in vitro [5]) of 6%.

In the case of `C[C@@H](NC(=O)Nc1ccc(Cl)cc1)[C@H]1CC[C@@H](c2ccnc3ccc(F)cc32)CC1`, the IC50 [1] is reported as 280 nM, the IC50 [2] is reported as 67 nM and the IC50 [3] is reported as 20 nM. For the same compound, the remaining at 10 min, 0.5 µM (in vitro [4]) was 14% and the remaining at 10 min, 0.5 µM (in vitro [5]) was 52%.
